Source: patent US7160913B2, “Methods and kit for treating Parkinson's disease” (Thomas Jefferson University, priority 2002, dated 2007)

Experiments:
parkinsonian monkeys [1] = assay: Duration of levodopa anti-Parkinson effect ("on" time) in parkinsonian monkeys; assay type: in vivo, monkey; settings: 8 mg/kg D-cycloserine with 40 mg/kg levodopa plus 15 mg benserazide, compared to levodopa plus benserazide alone; two parkinsonian monkeys; blinded raters
Experimental: Eight mg/kg D-cycloserine was administered to two parkinsonian monkeys with an established therapeutic response to levodopa, together with 40 mg/kg levodopa plus the 15 mg of the peripheral dopa decarboxylase inhibitor benserazide. Symptomatic benefit was assessed by raters blind to treatment condition.

parkinsonian monkey [2] = assay: Severity of levodopa-induced choreiform dyskinesias in a parkinsonian monkey; assay type: in vivo
Experimental: A parkinsonian monkey was primed for choreiform dyskinesia following chronic administration of levodopa plus the peripheral dopa decarboxylase inhibitor benserazide. […] Severity of the dyskinesias was rated by observers blind to the treatment condition. Three independent repetitions of the study were performed.

parkinsonian monkey [3] = assay: Severity of levodopa-induced dystonias in a parkinsonian monkey; assay type: in vivo; settings: 8 mg/kg D-cycloserine with 40 mg/kg levodopa plus 15 mg benserazide vs L-Dopa alone; at least over 120 minutes; three repetitions
Experimental: Under these conditions, 8 mg/kg D-cycloserine was administered to the monkeys with 40 mg/kg levodopa plus 15 mg benserazide. The severity of the dystonia was rated by observers blind to the treatment condition. […] Three independent repetitions of the study were performed.

parkinsonian monkeys [4] = assay: Peak-dose levodopa anti-parkinsonian efficacy in parkinsonian monkeys; assay type: in vivo, monkey; settings: 8 mg/kg D-cycloserine with 40 mg/kg levodopa plus 15 mg benserazide; assessed 30 or 60 minutes after levodopa; two parkinsonian monkeys
Experimental: In two parkinsonian monkeys with an established therapeutic response to levodopa, peak-dose levodopa efficacy was assessed by raters blind to treatment condition. Eight mg/kg D-cycloserine was administered to the monkeys with 40 mg/kg levodopa plus 15 mg benserazide.

| Structure (SMILES) | enhancement of levodopa "on" time, or duration of symptomatic relief by levodopa (parkinsonian monkeys [1]) [%] | severity of levodopa-induced choreiform dyskinesias (parkinsonian monkey [2]; 8 mg/kg D-cycloserine with 40 mg/kg levodopa plus 15 mg benserazide vs L-Dopa alone, at least over 120 minutes, monkey primed by chronic levodopa/benserazide, three repetitions) | severity of levodopa-induced dystonias (parkinsonian monkey [3]) | effect on therapeutic (anti-parkinsonian) efficacy of levodopa, peak-dose (parkinsonian monkeys [4]) | choreiform dyskinesias caused by levodopa challenge (parkinsonian monkey [2]; 40 mg/kg challenge dose of levodopa, parkinsonian monkey primed by chronic levodopa plus benserazide) |
| --- | --- | --- | --- | --- | --- |
| N[C@@H]1CONC1=O [D-cycloserine] | 41 | significantly decreased the severity of these dyskinesias | significantly decreased the severity of the dystonias | did not interfere with or reduce the therapeutic efficacy of levodopa | – |
| N[C@@H](Cc1ccc(O)c(O)c1)C(=O)O [levodopa] | – | – | – | – | caused significant choreiform dyskinesias |
